26 molecules from patent US11807650B2, “NMDA receptor modulators and uses thereof” (Novartis AG, priority 2016, dated 2023) can be followed below.

Experiment [1] has as its target T1, human GRIN1 (variant NR1-3) and GRIN2D expressed in HEK293 cells (Homo sapiens, UniProt O15399).
T1 construct: GenScript (GRIN2D synthesis) SC115601; host or cells: HEK293
Kind of experiment: GluN2D PAM CIQ fluorescence assay (Fluo-8 calcium, FDSS 6000). As to conditions: relative to CIQ (100 uM) = 100%, read-out: NR2D Percent CIQ Avg Max Measured Effect. The format is cell-based. As to the method:
GluN2D PAM CIO Flourescence AssayHEK293 cells were transfected to express human GRIN1 (variant NR1-3, Origene, SKU #: SC115601, Rockville, Md.) and GRIN2D (NCBI locus NM_000836, sequence optimized and synthesized by GenScript) and grown as an adherent monolayer at 37° C., 5% CO2 in DMEM/Ham's F12+10% FBS (Hyclone SH3007.03T in the presence of 2.5 mM ARL-15896 (AdooQ Bioscience, Irvine Calif.). To prepare the cells for an experiment, they were rinsed with Dulbecco's PBS (Ca^2+ and Mg^2+ free) and detached from the flask with TrypLE™ Express (Life Technologies, Carlsbad, Calif.) using the manufacturer's recommended methods. Cells collected from the flask were washed twice in Ca^2+/Mg^2+-free Hanks Balanced Salt Solution+20 mM HEPES (HBSS), and counted and assessed for viability with trypan blue. Washed cells were then dye-loaded by resuspending in Fluo-8/AM calcium sensitive dye plus Component B (AAT Bioquest, Sunnyvale, Calif.) diluted in HBSS. To allow cells to take up fluo-8 dye, they were incubated in the dark for 15 min at 37° C., followed by 30 min at 22-25° C. After dye-loading, cells were washed and resuspended in HBSS and plated in 384-well plates (Falcon 353962; Corning, Big Flats, N.Y.) at 20,000-30,000 cells/well in a final volume of 25 μl/well. The cell plates were centrifuged at 200×g, for 2 minutes at 21° C., to create a monolayer of cells at the bottom of the wells.
To initiate an assay, 10 μl of test compound or buffer was added to each well of the cell plate and pre-incubated for 10 minutes in the dark. After 10 minutes, the cell plate was placed in a FDSS 6000 plate reader (Hamamatsu Photonics, Middlesex, N.J.); baseline fluorescence readings were collected for 20 seconds. Next, 25 μl of agonist solution (3 μM glutamate, 3 μM glycine, and 1 mM Ca^2+ in HBSS) was added and the change in fluorescence was recorded for 3 minutes.
Results were calculated by comparing the effects of test compounds to that of the literature standard GluN2C/D PAM CIQ (100 uM). The increase in fluorescence in the presence of CIQ minus the increase induced by glutamate+glycine alone was set to 100%. Responses induced by compounds that were larger than gain the presence of the standard concentration of CIQ were greater than 100% and lesser responses were less than 100%.

The target in experiment [2] is T2, human GRIN1 (transcript variant NR1-3) and GRIN2D expressed in Xenopus oocytes (Homo sapiens, UniProt O15399).
T2 construct: GenScript (GRIN2D synthesis) SC115601; host or cells: Xenopus oocytes injected with cRNA (1 GluN1 : 2 GluN2)
Kind of experiment: NR2D oocyte potentiation assay (two-electrode voltage clamp). Type of experiment: cell-based. As to conditions: 10 uM test compound; glutamate and glycine 10 μM each; holding potential −40 mV. The essentials: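 Xenopus oocytes were defolliculated with collagenase, then injected with 50 nL of cRNA encoding human GluN1 (NR1-3 variant) and GluN2D mixed 1:2 and kept 72 h at 16° C. Two-electrode voltage clamp at −40 mV recorded currents; after 10 μM glutamate plus 10 μM glycine reached plateau, test compound was added until a new plateau formed.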
A general note: Two-electrode voltage clamp is typically applied to oocytes expressing channels or transporters.

T2 sequence (O15399 28-1336, other chains not shown): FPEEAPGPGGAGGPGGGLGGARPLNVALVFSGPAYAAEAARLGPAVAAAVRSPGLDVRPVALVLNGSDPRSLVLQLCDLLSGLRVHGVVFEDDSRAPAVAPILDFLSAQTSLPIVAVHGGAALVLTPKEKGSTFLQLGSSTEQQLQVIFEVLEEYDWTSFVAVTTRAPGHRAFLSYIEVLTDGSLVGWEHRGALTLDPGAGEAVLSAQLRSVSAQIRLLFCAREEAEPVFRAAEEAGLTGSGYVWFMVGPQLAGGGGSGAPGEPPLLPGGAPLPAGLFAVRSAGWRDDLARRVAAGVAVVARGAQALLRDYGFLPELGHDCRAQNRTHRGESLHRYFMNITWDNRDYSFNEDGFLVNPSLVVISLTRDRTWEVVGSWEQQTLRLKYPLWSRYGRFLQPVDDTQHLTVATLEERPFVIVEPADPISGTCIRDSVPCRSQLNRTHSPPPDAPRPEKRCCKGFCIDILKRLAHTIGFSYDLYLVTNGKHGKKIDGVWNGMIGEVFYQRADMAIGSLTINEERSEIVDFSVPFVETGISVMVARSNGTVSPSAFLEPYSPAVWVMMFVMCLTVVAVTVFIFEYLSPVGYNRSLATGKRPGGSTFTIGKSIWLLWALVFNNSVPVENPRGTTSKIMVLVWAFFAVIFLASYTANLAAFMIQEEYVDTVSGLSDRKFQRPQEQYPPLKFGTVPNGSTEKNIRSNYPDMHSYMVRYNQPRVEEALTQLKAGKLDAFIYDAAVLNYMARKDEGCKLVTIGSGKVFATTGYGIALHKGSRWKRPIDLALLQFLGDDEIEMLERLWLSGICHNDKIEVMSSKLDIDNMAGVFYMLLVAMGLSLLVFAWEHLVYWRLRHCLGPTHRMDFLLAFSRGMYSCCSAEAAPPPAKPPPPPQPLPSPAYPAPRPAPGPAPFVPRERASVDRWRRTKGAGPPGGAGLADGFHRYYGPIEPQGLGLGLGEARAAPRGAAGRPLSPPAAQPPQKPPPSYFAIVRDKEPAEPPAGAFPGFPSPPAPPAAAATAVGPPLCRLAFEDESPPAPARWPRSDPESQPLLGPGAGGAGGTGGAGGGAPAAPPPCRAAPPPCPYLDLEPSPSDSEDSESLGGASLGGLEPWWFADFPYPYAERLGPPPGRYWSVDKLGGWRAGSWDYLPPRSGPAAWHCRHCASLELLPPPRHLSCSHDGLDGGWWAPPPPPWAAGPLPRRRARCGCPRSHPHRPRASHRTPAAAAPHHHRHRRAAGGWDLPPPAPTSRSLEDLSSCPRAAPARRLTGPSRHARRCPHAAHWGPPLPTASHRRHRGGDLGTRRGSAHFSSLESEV
T1 sequence (O15399 28-1336, other chains not shown): as above

Regarding `Cc1ccc(-c2ccc(-c3nc4n(c(=O)c3C#N)CCCS4)c(F)c2)cc1` [Example 197, 8-[2-fluoro-4-(4-methylphenyl)phenyl]-6-oxo-2H,3H,4H,6H-pyrimido[2,1-b][1,3]thiazine-7-carbonitrile], the Emax in experiment [1] lay in the range of 10 to 50%. Moreover, the activation at 10 µM in experiment [2] lay within 10 to 100%.

`CC(C)(C)c1ccc(-c2nc3n(c(=O)c2C#N)CC2(COC2)CS3)cc1` [Example 204, 8′-(4-tert-butylphenyl)-6′-oxo-4′,6′-dihydro-2′H-spiro[oxetane-3,3′-pyrimido[2,1-b][1,3]thiazine]-7′-carbonitrile]: the Emax in experiment [1] was in the range of 10 to 50%. The activation at 10 µM in experiment [2] was in the range of 10 to 100%.

For the molecule `CC(C)c1ccc(-c2nc3n(c(=O)c2C#N)CCS3)cc1` [Example 206, 5-oxo-7-[4-(propan-2-yl)phenyl]-2H,3H,5H-[1,3]thiazolo[3,2-a]pyrimidine-6-carbonitrile], in experiment [1], the Emax was in the range of 50 to 100%. For the same molecule, the activation at 10 µM in experiment [2] fell in the range of 10 to 100%. Regarding `N#Cc1c(-c2ccc(Cl)cc2)nc2n(c1=O)CCS2` [Example 209, 7-(4-chlorophenyl)-5-oxo-2H,3H,5H-[1,3]thiazolo[3,2-a]pyrimidine-6-carbonitrile], the Emax in experiment [1] is 10 to 50%. Besides, the “NR2D Oocyte % Potentiation @ 10 uM” value in experiment [2] is reported as “Inhibitor”.

Turning to `Cc1nc(C(C)(C)C)ccc1-c1nc2n(c(=O)c1C#N)CCCS2` [Example 182, 8-(6-tert-butyl-2-methylpyridin-3-yl)-6-oxo-2H,3H,4H,6H-pyrimido[2,1-b][1,3]thiazine-7-carbonitrile], in experiment [1], the Emax is 100 to 200%. Further, the activation at 10 µM in experiment [2] lay in the range of 10 to 100%. For `CC(C)c1ccc(-c2ccc(-c3nc4n(c(=O)c3C#N)CCCS4)c(F)c2)cc1` [Example 198, 8-{2-fluoro-4[4-(propan-2-yl)phenyl]phenyl}-6-oxo-2H,3H,4H,6H-pyrimido[2,1-b][1,3]thiazine-7-carbonitrile], the Emax in experiment [1] lay in the range of 10 to 50%. For the same molecule, in experiment [2], the activation at 10 µM is 10 to 100%. With `CC1CSc2nc(-c3cnc(C(C)(C)C)nc3)c(C#N)c(=N)n2C1` (centres unmarked) [Example 39, 8-(2-(tert-butyl)pyrimidin-5-yl)-6-imino-3-methyl-3,4-dihydro-2H,6H-pyrimido[2,1-b][1,3]thiazine-7-carbonitrile], the Emax in experiment [1] is more than 200%. In addition, the activation at 10 µM in experiment [2] was more than 1000%. For `CN(C)C(=O)/N=c1/c(C#N)c(-c2ccc(C(C)(C)C)cc2)nc2n1CCCS2` [Example 42, (Z)-3-(8-(4-(tert-butyl)phenyl)-7-cyano-3,4-dihydro-2H,6H-pyrimido[2,1-b][1,3]thiazin-6-ylidene)-1,1-dimethylurea], in that order: 100 to 200% and 100 to 500%. `CC(C)(C)c1ccc(-c2nc3n(c(=O)c2C#N)CCCS3)s1` [Example 177, 8-(5-tert-butylthiophen-2-yl)-6-oxo-2H,3H,4H,6H-pyrimido[2,1-b][1,3]thiazine-7-carbonitrile]: in experiment [1], the Emax was 100 to 200%. Take `CC(C)(C)c1ccc(-c2nc3n(c(=O)c2C#N)C(c2ccccc2)CCS3)cc1` (centres unmarked) [Example 202, 8-(4-tert-butylphenyl)-3,4-dihydro-4-phenyl-6-oxo-2H,6H-pyrimido[2,1-b][1,3]thiazine-7-carbonitrile]: the Emax in experiment [1] is 10 to 50%. The “NR2D Oocyte % Potentiation @ 10 uM” value in experiment [2] is given as “Inhibitor”. For `COc1ccc(-c2nc3n(c(=O)c2C#N)CCCS3)c(OC)c1` [Example 186, 8-(2,4-dimethoxyphenyl)-6-oxo-2H,3H,4H,6H-pyrimido[2,1-b][1,3]thiazine-7-carbonitrile], the Emax in experiment [1] was 10 to 50%. Turning to `CC(C)(C)c1ccc(-c2nc3n(c(=O)c2C#N)CCCS3)cn1` [Example 174, 8-(6-tert-butyl-3-pyridinyl)-3,4-dihydro-6-oxo-2H,6H-pyrimido[2,1-b][1,3]thiazine-7-carbonitrile], in experiment [1], the Emax was in the range of 100 to 200%. For the same molecule, in experiment [2], the activation at 10 µM lay within 500 to 1000%. The like results for `CC(C)(C)c1ncc(-c2nc3ccccn3c(=O)c2C#N)cn1` [Example 20, 2-(2-(tert-butyl)pyrimidin-5-yl)-4-oxo-4H-pyrido[1,2-a]pyrimidine-3-carbonitrile] were, in that order, 100 to 200% and 100 to 500%. Take `CC1CSc2nc(-c3cnc(C(C)(C)C)nc3)c(C#N)c(=O)n2C1` (centres unmarked) [Example 49, 8-(2-(tert-butyl)pyrimidin-5-yl)-3-methyl-6-oxo-3,4-dihydro-2H,6H-pyrimido[2,1-b][1,3]thiazine-7-carbonitrile]: the Emax in experiment [1] is more than 200%. Further, in experiment [2], the activation at 10 µM is more than 1000%. Regarding `CC(C)(C)c1ccc(-c2nc3n(c(=N)c2C#N)CCCS3)cn1` [Example 38, 8-(6-(tert-butyl)pyridin-3-yl)-6-imino-3,4-dihydro-2H,6H-pyrimido[2,1-b][1,3]thiazine-7-carbonitrile], the Emax in experiment [1] is 100 to 200%. Further, in experiment [2], the activation at 10 µM is more than 1000%.

As to `CC1CCSc2nc(-c3ccc(C(C)(C)C)nc3)c(C#N)c(=O)n21` (centres unmarked) [Example 50, 8-(6-(tert-butyl)pyridin-3-yl)-4-methyl-6-oxo-3,4-dihydro-2H,6H-pyrimido[2,1-b][1,3]thiazine-7-carbonitrile], the Emax in experiment [1] lay within 100 to 200%. For the same molecule, the activation at 10 µM in experiment [2] lay in the range of 100 to 500%.

`CC(C)(C)c1ccc(-c2nc3n(c(=O)c2C#N)CCCS3)cc1` [Example 184, 8-(4-tert-butylphenyl)-3,4-dihydro-6-oxo-2H,6H-pyrimido[2,1-b][1,3]thiazine-7-carbonitrile]: in experiment [1], the Emax was 100 to 200%. Also, the activation at 10 µM in experiment [2] is more than 1000%.

As to `COc1ccccc1-c1nc2n(c(=O)c1C#N)CCCS2` [Example 188, 8-(2-methoxyphenyl)-6-oxo-2H,3H,4H,6H-pyrimido[2,1-b][1,3]thiazine-7-carbonitrile], in experiment [1], the Emax fell in the range of 10 to 50%. Regarding `C[C@H]1CSc2nc(-c3ccc(C(C)(C)C)nc3)c(C#N)c(=O)n2C1` [Example 44, (R)-8-(6-(tert-butyl)pyridin-3-yl)-3-methyl-6-oxo-3,4-dihydro-2H,6H-pyrimido[2,1-b][1,3]thiazine-7-carbonitrile], in experiment [1], the Emax was 100 to 200%. In experiment [2], the activation at 10 µM fell in the range of 100 to 500%. For the molecule `CC1CSc2nc(-c3ccc(N(C)C)nc3)c(C#N)c(=O)n2C1` (centres unmarked) [Example 67, 8-[6-(dimethylamino)pyridin-3-yl]-3-methyl-6-oxo-2H,3H,4H,6H-pyrimido[2,1-b][1,3]thiazine-7-carbonitrile], the Emax in experiment [1] is 50 to 100%. Besides, the activation at 10 µM in experiment [2] lay in the range of 100 to 500%. Take `CC(C)(C)c1ccc(-c2nc3n(c(=N)c2C#N)CCCS3)cc1` [Example 36, 8-(4-(tert-butyl)phenyl)-6-imino-3,4-dihydro-2H,6H-pyrimido[2,1-b][1,3]thiazine-7-carbonitrile]: the Emax in experiment [1] was 100 to 200%. In addition, the activation at 10 µM in experiment [2] lay within 500 to 1000%. Regarding `Cc1ccc(-c2nc3n(c(=O)c2C#N)CCCS3)cc1` [Example 185, 8-(4-methylphenyl)-6-oxo-2H,3H,4H,6H-pyrimido[2,1-b][1,3]thiazine-7-carbonitrile], the Emax in experiment [1] lay within 50 to 100%. Regarding `CC(C)(C)c1ccc(-c2nc3n(c(=O)c2C#N)CC2(CC2)CS3)cc1` [Example 203, 8′-(4-tert-butylphenyl)-6′-oxo-4′,6′-dihydro-2′H-spiro[cyclopropane-1,3′-pyrimido[2,1-b][1,3]thiazine]-7′-carbonitrile], the Emax in experiment [1] fell in the range of 100 to 200%. Take `N#Cc1c(-c2ccc(-c3ccccc3)cc2F)nc2n(c1=O)CCCS2` [Example 194, 3,4-dihydro-8-(2-fluoro-4-phenylphenyl)-6-oxo-2H,6H-pyrimido[2,1-b][1,3]thiazine-7-carbonitrile]: the Emax in experiment [1] fell in the range of 10 to 50%. Same read-out and setting: in the case of `CSc1ccc(-c2nc3n(c(=O)c2C#N)CCS3)cc1` [Example 207, 7-[4-(methylsulfanyl)phenyl]-5-oxo-2H,3H,5H-[1,3]thiazolo[3,2-a]pyrimidine-6-carbonitrile] it was 100 to 200%; in that of `CC(C)(C)c1ccc(-c2nc3scc(N)n3c(=O)c2C#N)cc1` [Example 210, 3-amino-7-(4-tert-butylphenyl)-5-oxo-5H-thiazolo[3,2-a]pyrimidine-6-carbonitrile], 10 to 50%.
